The test system of this assay is ConA-induced acute hepatitis model. In words: ConA-induced acute hepatitis model. The format is in vivo, C57BL/6J mice. As to conditions: plasma, 9 hours after ConA; vs PBS buffer group. On the procedure: An acute hepatitis model was induced by dissolving ConA (concanavalin A) in PBS buffer (phosphate buffered saline) at 1.5 mg/mL and injecting the solution into 8-week-old specific pathogen free (SPF) male C57BL/6J mice through the tail vein in proportion to the mouse body weight based on 100 μL/10 g. Amuc_1409 or PEP001, PEP002, PEP003, PEP004, or PEP005 was dissolved in PBS buffer at a concentration of 6.7 μM from 3 days before ConA administration, and PEP007, PEP008, PEP009, or PEP010 was dissolved in PBS buffer at a concentration of 0.2 μg/150 μL from 3 days before ConA administration, and Amuc_1409 was injected into the mouse peritoneal cavity once a day at the same time by 210 μL and PEP001 to PEP010 by 150 μL, and intraperitoneally injected additionally one time 30 minutes before ConA injection, and the experiment was terminated 9 hours after ConA intravenous injection. Into the control group, PBS buffer was intravenously injected in the same manner. At the end of the experiment 9 hours after ConA intravenous injection, blood was collected from the orbital venous plexus using a heparin-treated capillary tube, and the collected blood was immediately centrifuged at 10,000 rpm (4° C.) for 10 minutes to separate plasma and then subjected to the analysis of alanine aminotransferase (ALT) and aspartate aminotransferase (AST), which are indicators of liver damage, using an automatic blood biochemical analyzer (Beckman Coulter AU480 automatic analyzer, Beckman Coulter). The liver was harvested, a part of the liver was fixed in 10% NBF at room temperature for 24 hours or more and then embedded in paraffin to prepare a 5 μm-thick section, and the section was stained with hematoxylin and eosin (H&E).
Take GAY [PEP005]: the ALT result is on record as “decreased close to a significant level” and the AST result was “tended to decrease”.

For KGAY (PEP003), the ALT entry is “significantly decreased” and the AST entry is listed as “tended to decrease”.

With AVSSI (PEP002), the ALT entry was “significantly decreased” and the AST result is on record as “tended to decrease”.

Take AVS (AVSSIKGAY) [PEP004]: the ALT result is given as “significantly decreased” and the AST result is listed as “tended to decrease”.
